In patent publication US20100130618A1, “TREATMENT OF HUMAN DISEASE CONDITIONS AND DISORDERS USING VITAMIN K ANALOGUES AND DERIVATIVES” (priority 2007, published 2010):
Where two headings read alike, the source gives them in different places.

Assays:
[1] = cited from earlier work
[2] = cited from earlier work; remark: listed apart in the source
[3] = 50 gms natto per day with 865, 1295 or 1730 μg MK-7 per 100 g; cited from earlier work
[4] = Clinical case studies of oral MK-7 (Examples 1-10); assay type: in vivo, humans
Source text: Examples 1-10 enumerate clinical case studies data and Examples 11 and 12 provide in vitro experiments.

[5] = cited from earlier work; remark: listed apart in the source
[6] = test system: Guinea Pig ileum; test: Guinea pig ileum, acetylcholine induced smooth muscle contraction; details: for inhibition of acetylcholine induced smooth muscle contraction: acetylcholine 50 μg/ml; for smooth muscle relaxant activity (inference): overall inference from guinea pig ileum data
Experimental: (§1) Muscle relaxant activity was evaluated of pure test samples PK and MK-4 with Frog Rectus Abdominus Muscle and Guinea Pig ileum.
(§2) To evaluate the effect of test samples on smooth muscle contraction induced by (a) Acetylcholine (Neurotransmitter) which acts on […] receptors, (b) Histamine that causes a transient rise of cytosolic calcium, which is mediated by H1 receptor coupling that triggers release of internal calcium stores and (c) Barium that enters the cell through a voltage dependent calcium channel and, either directly or indirectly, interacts with calmodulin.
(§3) Test Samples were PK-400 μg/ml and MK-4-400 μg/ml

[7] = test system: Frog Heart; test: Frog heart, adrenaline-induced contractions; details: for inhibition of adrenaline-induced contractions: 0.1 ml (40 μg), 0.2 ml (80 μg) and 0.4 ml (160 μg), adrenaline 40 μg/ml; for beta blocker activity (inference): overall inference from adrenalic response
Experimental: Frog Heart Adrenaline: 40 μg/ml

[8] = test system: Frog Rectus Abdominus Muscle; test: Frog rectus abdominus muscle preparation, acetylcholine induced skeletal muscle contraction; details: for antagonism of contraction induced by acetylcholine (40 μg): dose of 400 μg; for activity on skeletal muscle contraction (inference): overall inference
Experimental: as §1
B) Frog Rectus Abdominus Muscle Preparation
To evaluate the effect of test samples on skeletal muscle contraction induced by Acetylcholine (Neurotransmitter).
Acetylcholine: 100 mcg/ml
as §3

[9] = test system: Guinea Pig ileum; test: Guinea pig ileum, histamine induced smooth muscle contraction; details: dose 640 μg (1.6 ml); histamine 25 μg/ml
Experimental: as §1, §2, §3

[10] = test system: Guinea Pig ileum; test: Guinea pig ileum, barium chloride induced smooth muscle contraction; details: dose 640 μg (1.6 ml); barium chloride 1%
Experimental: as §1, §2, §3

[11] = Example 02: MK-7 p.o. every day
[12] = Example 05: person, 100 μg per day

## CC(C)=CCC/C(C)=C/CC/C(C)=C/CC/C(C)=C/CC/C(C)=C/CC/C(C)=C/CC/C(C)=C/CC1=C(C)C(=O)c2ccccc2C1=O [MK-7]
[1]; dietary intake 24 μg per day mid tertile vs 12 μg per day lower tertile
  reduction (mid tertile): 25%
[1]; dietary intake 45 μg per day upper tertile vs 12 μg per day lower tertile, 10 years follow-up
  reduction in CHD mortality and aortic calcification: 50%
[1]; dietary intake 45 μg per day upper tertile vs 12 μg per day lower tertile
  reduction in all cause mortality: 25%
[2]; at 72 hrs
  concentration relative to the peak value concentration (Cmax) achieved by PK: > 50%
  detectability in circulation: remains detectable
[2]; in vivo
  half life: 50 h
[3]
  serum MK-7 concentration and γ-carboxylated osteocalcin concentration: elevated parallel to the administered level
[4]; Example 01: person, type 2 diabetes, MK-7 100 μg per day for 2 months
  tingling, numbness and burning of feet: complete relief
[4]; Example 01: person, type 2 diabetes, MK-7 for one and a half years
  skin hyper pigmentation of nape of neck: almost subsided
[4]; Example 02: MK-7 added to schedule
  energy levels and fatigue: higher energy levels and less fatigue
[4]; [11]
  paper-money skin appearance: much reduced
  tingling and numbness: reduced markedly
[4]; Example 02: MK-7 p.o. every day, over the next four months (before: 2 to 3 times in a week)
  frequency of mild cramps: one or two in a month
[4]; Example 02: person, type 2 diabetes, hypertension, MK-7 p.o. every day, over the next two weeks
  severity and frequency of muscle cramps: steadily decreased
[4]; Example 03: person, 100 μg one tablet per day, after six months
  cramps during night and day: disappeared
[4]; Example 04: person, daily dose 200 μg, within 10-15 days
  rough skin on both heels: completely lost roughness and became smooth
[4]; [12]
  scalp hair-loss: stopped distinctly
  skin of feet: smoothness of skin of their feet, diminution of cracks in the feet
[4]; Example 05: person, p.o. 100 μg per day
  hyper pigmentation and paper-money skin of lower limbs: gradually reduced to a bare minimum
[4]; Example 06: person, 100 μg two times a day
  frequency, duration and severity of leg cramps: decreased
[4]; Example 07: 100 μg twice a day, another 3 months (6 months total)
  skin lightening: considerable lightening of the skin
[4]; Example 07: person, 100 μg twice a day, after 2 to 3 months
  hyper pigmentation of face, arms and neck: decreased
[4]; Example 08: 200 μg per day, over 2 months
  nail growth: grows faster
[4]; Example 08: athlete, 200 μg per day, within 2 months
  severity of cramps after marathon: lowered
[4]; Example 09: diabetic, 100 μg per day, within 15 days
  residual neuropathy symptoms (tingling, numbness, paresthesiae, burning sensation): disappears completely
[4]; Example 10: 200 μg per day for 1 year (before: every night)
  frequency of restless legs syndrome: once or twice a month
[4]; Example 10: person, 200 μg per day, within 2 weeks
  restless legs syndrome: reduced considerably
[5]; British women
  serum MK-7 concentration (mean±SD): 0.37 ± 0.20 ng/mL
[5]; Japanese women in Hiroshima
  serum MK-7 concentration (mean±SD): 1.22 ± 1.85 ng/mL
[5]; Japanese women in Tokyo
  serum MK-7 concentration (mean±SD): 5.26 ± 6.13 ng/mL

## CC(C)=CCC/C(C)=C/CC/C(C)=C/CC/C(C)=C/CC1=C(C)C(=O)c2ccccc2C1=O [MK-4, menatetrenone]
[6]; dose 80 μg (0.2 ml)
  inhibition of acetylcholine induced smooth muscle contraction: 21.62%
[6]; dose 160 μg (0.4 ml)
  inhibition of acetylcholine induced smooth muscle contraction: 40%
[6]; dose 320 μg (0.8 ml)
  inhibition of acetylcholine induced smooth muscle contraction: 81.81%
[6]
  smooth muscle relaxant activity (inference): demonstrate a smooth muscle relaxant activity
[7]
  inhibition of adrenaline-induced contractions: failed to inhibit
  beta blocker activity (inference): do not exhibit beta blocker activity
[8]
  antagonism of contraction induced by acetylcholine (40 μg): not antagonized
  activity on skeletal muscle contraction (inference): failed to exhibit activity
[9]
  inhibition of histamine induced smooth muscle contraction: 29.4%
[10]
  inhibition of barium chloride induces smooth muscle contraction: 29%

## CC(C)NCC(O)COc1cccc2ccccc12 (stereo not drawn) [Propanolol]
[7]; reference competitive inhibitor of adrenaline, FIG. 6
  inhibition of adrenaline response: found to inhibit adrenaline response

## vitamin B12
[4]; Example 02: vitamin B12 deficiency on Metformin, injections 500 μg over 2 weeks, MK-7 continued
  tingling and numbness: significant relief

## CC1=C(C/C=C(\C)CCC[C@H](C)CCC[C@H](C)CCCC(C)C)C(=O)c2ccccc2C1=O [PK, phylloquinone]
[6]; dose 320 μg (0.8 ml)
  inhibition of acetylcholine induced smooth muscle contraction: 38.46%
[6]; dose 640 μg (1.6 ml)
  inhibition of acetylcholine induced smooth muscle contraction: 46.15%
[6]
  smooth muscle relaxant activity (inference): demonstrate a smooth muscle relaxant activity
[2]; in vivo
  elimination half life: 1.5 h
[2]; taken together with 30 g fat
  absorption from vegetables: 10-15%
[2]; without concomitant fat intake
  absorption from vegetables: 5-10%
[7]
  inhibition of adrenaline-induced contractions: failed to inhibit
  beta blocker activity (inference): do not exhibit beta blocker activity
[8]
  antagonism of contraction induced by acetylcholine (40 μg): not antagonized
  activity on skeletal muscle contraction (inference): failed to exhibit activity
[9]
  inhibition of histamine induced smooth muscle contraction: 37.16%
[10]
  inhibition of barium chloride induces smooth muscle contraction: 31%
